Here are results for 6 compounds from US8076487B2, “Pyridone derivative and herbicide” (Kumiai Chemical Industry Co., Ltd., priority 2006, dated 2011).

Each structure is given as a SMILES string.

Holding throughout (format): in vivo
Experiment [1] concerns Japanese bulrush (Scirpus juncoides Roxb.). In words: Test Example 1: herbicidal effect by soil application to paddy field. The settings on record: paddy field soil application; active ingredient 1,000 g per 1 hectare; wettable powder added dropwise to water surface the day after sowing; examined on the 21st day after application. The method, boiled down:
(§1)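 Under greenhouse conditions, seeds sown on puddled paddy soil in 100 cm2 pots under 3 cm of standing water received the test compound; injury was assessed with a standard scoring scheme three weeks (day 21) after treatment.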

Experiment [2] has as its system early watergrass (Echinochloa oryzicola Vasing). The description is as above. The settings on record: paddy field soil application; active ingredient 1,000 g per 1 hectare; wettable powder added dropwise to water surface the day after sowing; examined on the 21st day after application. The method, boiled down:
as §1

The test system of experiment [3] is heartshape false pickerelweed (Monochoria vaginalis (Burm.f.) C.Presl). The experiment is described as above. The settings on record: paddy field soil application; active ingredient 1,000 g per 1 hectare; wettable powder added dropwise to water surface the day after sowing; examined on the 21st day after application. The method, boiled down:
as §1

Experiment [4] has as its system barnyardgrass (Echinochloa crus-galli (L.) P. Beauv. var. crus-galli). Description: Test Example 2: herbicidal effect by soil application to upland field. The settings on record: soil surface spray, upland field soil, 1,000 g active ingredient per hectare, 21st day after application. An outline of the steps: (§2)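 In this soil-application test, sown and soil-covered pots are sprayed uniformly with the formulation diluted in water, giving 1,000 g of active ingredient per ha in a volume of 1,000 L per ha. Plants then grow in a greenhouse for 21 days before herbicidal scoring by a standard scale.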

The test system of experiment [5] is green foxtail (Setaria viridis (L.) P. Beauv.). The description is as above. The settings on record: soil surface spray, upland field soil, 1,000 g active ingredient per hectare, 21st day after application. The method, boiled down: as §2
The subject of experiment [6] is slender amaranth (Amaranthus viridis L.). The description is as above. The settings on record: soil surface spray, upland field soil, 1,000 g active ingredient per hectare, 21st day after application. The method, boiled down: as §2
For experiment [7], the system named is velvetleaf (Abutilon theophrasti medicus). Described as above. The settings on record: soil surface spray, upland field soil, 1,000 g active ingredient per hectare, 21st day after application. An outline of the steps: as §2
The subject of experiment [8] is barnyardgrass (Echinochloa crus-galli (L.) P. Beauv. var. crus-galli). Description: Test Example 3: herbicidal effect by application to upland field (foliage treatment). The settings on record: 14th day after application; for herbicidal effect (index), Barnyardgrass: foliage treatment, plants grown two weeks, 1,000 g active ingredient per hectare; for herbicidal effect, Barnyardgrass: foliage treatment, 1,000 g active ingredient per 1 hectare, greenhouse. The method, boiled down: (§3)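 Effect scores come from a standard grading 14 days after plants, grown from seed for two weeks in field soil in a greenhouse, were sprayed over the top with wettable powder in water at 1,000 g active ingredient per hectare.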

Experiment [9] deals with green foxtail (Setaria viridis (L.) P. Beauv.). The experiment is described as above. The settings on record: 14th day after application; for herbicidal effect (index), Green Foxtail: foliage treatment, plants grown two weeks, 1,000 g active ingredient per hectare; for herbicidal effect, Green Foxtail: foliage treatment, 1,000 g active ingredient per 1 hectare, greenhouse. An outline of the steps: as §3

The subject of experiment [10] is slender amaranth (Amaranthus viridis L.). The experiment is described as above. The settings on record: 14th day after application; for herbicidal effect (index), Slender Amaranth: foliage treatment, plants grown two weeks, 1,000 g active ingredient per hectare; for herbicidal effect, Slender Amaranth: foliage treatment, 1,000 g active ingredient per 1 hectare, greenhouse. An outline of the steps:
as §3

The subject of experiment [11] is velvetleaf (Abutilon theophrasti medicus). Described as above. The settings on record: 14th day after application; for herbicidal effect (index), Velvetleaf: foliage treatment, plants grown two weeks, 1,000 g active ingredient per hectare; for herbicidal effect, Velvetleaf: foliage treatment, 1,000 g active ingredient per 1 hectare, greenhouse. An outline of the steps:
as §3

For `O=C1CCCC(O)=C1C(=O)c1ccc(C(F)(F)F)n(CC(F)(F)F)c1=O` [I-10], the “herbicidal effect, Scirpus juncoides Roxb.” value in experiment [1] is 5 (90% or more of herbicidal effect and crop phytotoxicity). Moreover, the “herbicidal effect, Echinochloa oryzicola Vasing” value in [2] is 5 (90% or more of herbicidal effect and crop phytotoxicity). Besides, in experiment [3], the “herbicidal effect, Monochoria vaginalis (Burm. f.) C. Presl” value (“herbicidal effect, Monochoria vaginalis” for short) is 5 (90% or more of herbicidal effect and crop phytotoxicity). Also, the “herbicidal effect (index), Barnyardgrass” value in experiment [4] was 5 (90% or more of herbicidal effect and crop phytotoxicity); in experiment [8], 5 (90% or more of herbicidal effect and crop phytotoxicity). The “herbicidal effect (index), Green Foxtail” value in experiment [5] is 3 (50 to less than 70% of herbicidal effect and crop phytotoxicity); in experiment [9] it was 4 (70 to less than 90% of herbicidal effect and crop phytotoxicity). The “herbicidal effect (index), Slender Amaranth” value in experiment [6] is 3 (50 to less than 70% of herbicidal effect and crop phytotoxicity); in experiment [10], 5 (90% or more of herbicidal effect and crop phytotoxicity). Further, the “herbicidal effect (index), Velvetleaf” value in [7] was 5 (90% or more of herbicidal effect and crop phytotoxicity); in experiment [11], 5 (90% or more of herbicidal effect and crop phytotoxicity).

In the case of `COc1ccc(-n2c(C(F)(F)F)ccc(C(=O)C3=C(O)CCCC3=O)c2=O)cc1OC` [I-100], the “herbicidal effect, Scirpus juncoides Roxb.” value in [1] was 5 (90% or more of herbicidal effect and crop phytotoxicity). In addition, the “herbicidal effect, Echinochloa oryzicola Vasing” value in experiment [2] was 5 (90% or more of herbicidal effect and crop phytotoxicity). In experiment [3], the “herbicidal effect, Monochoria vaginalis” value was 5 (90% or more of herbicidal effect and crop phytotoxicity). Besides, the “herbicidal effect (index), Barnyardgrass” value is 5 (90% or more of herbicidal effect and crop phytotoxicity) in experiment [4]; 5 (90% or more of herbicidal effect and crop phytotoxicity) in experiment [8]. Also, the “herbicidal effect (index), Green Foxtail” value in [5] was 4 (70 to less than 90% of herbicidal effect and crop phytotoxicity); in [9], 4 (70 to less than 90% of herbicidal effect and crop phytotoxicity). In addition, the “herbicidal effect (index), Slender Amaranth” value was 5 (90% or more of herbicidal effect and crop phytotoxicity) in experiment [6]; 5 (90% or more of herbicidal effect and crop phytotoxicity) in experiment [10]. The “herbicidal effect (index), Velvetleaf” value is 5 (90% or more of herbicidal effect and crop phytotoxicity) in experiment [7]; 5 (90% or more of herbicidal effect and crop phytotoxicity) in experiment [11].

On to `Cn1ncc(C(=O)c2ccc(Cl)n(C)c2=O)c1O` [IV-243], for which, in experiment [1], the “herbicidal effect, Scirpus juncoides Roxb.” value is 5 (90% or more of herbicidal effect and crop phytotoxicity). The “herbicidal effect, Echinochloa oryzicola Vasing” value in [2] is 5 (90% or more of herbicidal effect and crop phytotoxicity). The “herbicidal effect, Monochoria vaginalis” value in experiment [3] was 5 (90% or more of herbicidal effect and crop phytotoxicity). The “herbicidal effect (index), Barnyardgrass” value in experiment [4] is 5 (90% or more of herbicidal effect and crop phytotoxicity). Further, the “herbicidal effect (index), Green Foxtail” value in [5] is 3 (50 to less than 70% of herbicidal effect and crop phytotoxicity). In addition, the “herbicidal effect (index), Slender Amaranth” value in [6] is 5 (90% or more of herbicidal effect and crop phytotoxicity). The “herbicidal effect (index), Velvetleaf” value in experiment [7] was 5 (90% or more of herbicidal effect and crop phytotoxicity). In addition, the “herbicidal effect, Barnyardgrass” value in experiment [8] was 5 (90% or more of herbicidal effect and crop phytotoxicity). Moreover, the “herbicidal effect, Green Foxtail” value in experiment [9] is 4 (70 to less than 90% of herbicidal effect and crop phytotoxicity). Also, the “herbicidal effect, Slender Amaranth” value in experiment [10] is 5 (90% or more of herbicidal effect and crop phytotoxicity). Besides, the “herbicidal effect, Velvetleaf” value in [11] was 5 (90% or more of herbicidal effect and crop phytotoxicity).

On to `CCCn1c(C(F)(F)F)c(C)cc(C(=O)C2=C(O)C3CCC(C3)C2=O)c1=O` (stereo not drawn) [III-18], for which the “herbicidal effect, Scirpus juncoides Roxb.” value in experiment [1] is 5 (90% or more of herbicidal effect and crop phytotoxicity). For the same compound, the “herbicidal effect, Echinochloa oryzicola Vasing” value in experiment [2] is 5 (90% or more of herbicidal effect and crop phytotoxicity). In addition, the “herbicidal effect, Monochoria vaginalis” value in [3] was 5 (90% or more of herbicidal effect and crop phytotoxicity). In experiment [4], the “herbicidal effect (index), Barnyardgrass” value was 5 (90% or more of herbicidal effect and crop phytotoxicity). Besides, the “herbicidal effect (index), Green Foxtail” value in [5] was 3 (50 to less than 70% of herbicidal effect and crop phytotoxicity). For the same compound, the “herbicidal effect (index), Slender Amaranth” value in [6] was 5 (90% or more of herbicidal effect and crop phytotoxicity). For the same compound, in [7], the “herbicidal effect (index), Velvetleaf” value is 5 (90% or more of herbicidal effect and crop phytotoxicity). Also, in [8], the “herbicidal effect, Barnyardgrass” value was 5 (90% or more of herbicidal effect and crop phytotoxicity). Also, the “herbicidal effect, Green Foxtail” value in experiment [9] is 5 (90% or more of herbicidal effect and crop phytotoxicity). The “herbicidal effect, Slender Amaranth” value in experiment [10] was 5 (90% or more of herbicidal effect and crop phytotoxicity). For the same compound, in experiment [11], the “herbicidal effect, Velvetleaf” value is 5 (90% or more of herbicidal effect and crop phytotoxicity).

As for `COc1cc(-n2c(C(F)(F)F)ccc(C(=O)c3cnn(C)c3O)c2=O)ccc1Cl` [IV-90], in experiment [1], the “herbicidal effect, Scirpus juncoides Roxb.” value is 5 (90% or more of herbicidal effect and crop phytotoxicity). Further, in [2], the “herbicidal effect, Echinochloa oryzicola Vasing” value was 5 (90% or more of herbicidal effect and crop phytotoxicity). Besides, in [3], the “herbicidal effect, Monochoria vaginalis” value was 5 (90% or more of herbicidal effect and crop phytotoxicity). Besides, the “herbicidal effect (index), Barnyardgrass” value in experiment [4] is 5 (90% or more of herbicidal effect and crop phytotoxicity). The “herbicidal effect (index), Green Foxtail” value in experiment [5] is 3 (50 to less than 70% of herbicidal effect and crop phytotoxicity). Moreover, in experiment [6], the “herbicidal effect (index), Slender Amaranth” value is 5 (90% or more of herbicidal effect and crop phytotoxicity). For the same compound, the “herbicidal effect (index), Velvetleaf” value in experiment [7] was 5 (90% or more of herbicidal effect and crop phytotoxicity). For the same compound, the “herbicidal effect, Barnyardgrass” value in experiment [8] was 5 (90% or more of herbicidal effect and crop phytotoxicity). Also, the “herbicidal effect, Green Foxtail” value in experiment [9] was 5 (90% or more of herbicidal effect and crop phytotoxicity). The “herbicidal effect, Slender Amaranth” value in [10] was 5 (90% or more of herbicidal effect and crop phytotoxicity). In addition, the “herbicidal effect, Velvetleaf” value in experiment [11] is 5 (90% or more of herbicidal effect and crop phytotoxicity).

On to `C[S+]([O-])c1cccc(-n2c(C(F)(F)F)ccc(C(=O)C3=C(O)CCCC3=O)c2=O)c1` (stereo not drawn) [I-81], for which the “herbicidal effect, Scirpus juncoides Roxb.” value in experiment [1] is 5 (90% or more of herbicidal effect and crop phytotoxicity). In [2], the “herbicidal effect, Echinochloa oryzicola Vasing” value was 5 (90% or more of herbicidal effect and crop phytotoxicity). Further, the “herbicidal effect, Monochoria vaginalis” value in experiment [3] was 5 (90% or more of herbicidal effect and crop phytotoxicity). The “herbicidal effect (index), Barnyardgrass” value in [4] is 5 (90% or more of herbicidal effect and crop phytotoxicity); in experiment [8], 5 (90% or more of herbicidal effect and crop phytotoxicity). The “herbicidal effect (index), Green Foxtail” value in experiment [5] is 5 (90% or more of herbicidal effect and crop phytotoxicity); in experiment [9], 5 (90% or more of herbicidal effect and crop phytotoxicity). The “herbicidal effect (index), Slender Amaranth” value in [6] was 5 (90% or more of herbicidal effect and crop phytotoxicity); in experiment [10], 5 (90% or more of herbicidal effect and crop phytotoxicity). The “herbicidal effect (index), Velvetleaf” value in [7] was 5 (90% or more of herbicidal effect and crop phytotoxicity); in experiment [11] it was 5 (90% or more of herbicidal effect and crop phytotoxicity).
